How the values were obtained:
[1] = system: CT26 tumors; experiment: Subcutaneous CT26 murine colon cancer model, tumor volume; type: in vivo, Balb/c mice; details: doxorubicin alone, 10 mg/kg
Description: (§1) FIG. 6A-D. The combined effects of SipA-AuNPs and exogenous doxorubicin prevent tumor growth. (FIG. 6A) Balb/c mice bearing subcutaneous CT26 tumors (mean tumor volumes of approximately 0.5 mm^3) received IP treatments for 15 days as described in the Materials and Methods section, (▪) Untreated, (●) AuNP alone, (▴A) SipA-AuNPs, (♦) Doxorubicin or (□) SipA-AuNP plus Doxorubicin (DOX). SipA-AuNPs conjugates improve the efficacy of doxorubicin. (*P<0.0001). (FIG. 6B) Accumulation of gold nanoparticles in the tumors shown in (FIG. 6A) was evaluated by SEM and X-ray microanalysis. Color intensity represents tumor penetration. The sections of tumor were imaged for X-ray analysis and X-ray mapping as described in the Materials and Methods section. (FIG. 6C) P-gp expression in the tumors shown in (FIG. 6A) was evaluated by western blot. Tumors were homogenized and lysed. Whole cell lysates were normalized for protein levels and probed for P-gp. Levels of P-gp were quantified by densitometry and presented on the bar cart. Densitometry was performed using ImageJ and results are presented as relative to the untreated cells. […] Levels of P-gp were quantified by densitometry and presented on the bar graph. […]
The subcutaneous tumor model. […] Tumor size was measured using calipers and volumes were estimated using the formula 0.5×length×(width)^2. […]

[2] = system: P-gp; experiment: Colonic P-gp expression in mice colonized with S. Typhimurium strains; type: in vivo, Balb/c mice; details: SipA over-expressing strain (AJK63) vs isogenic SipA mutant strain (EE633), proximal colon, 48 hours
P-gp, sequence (P08183 whole entry): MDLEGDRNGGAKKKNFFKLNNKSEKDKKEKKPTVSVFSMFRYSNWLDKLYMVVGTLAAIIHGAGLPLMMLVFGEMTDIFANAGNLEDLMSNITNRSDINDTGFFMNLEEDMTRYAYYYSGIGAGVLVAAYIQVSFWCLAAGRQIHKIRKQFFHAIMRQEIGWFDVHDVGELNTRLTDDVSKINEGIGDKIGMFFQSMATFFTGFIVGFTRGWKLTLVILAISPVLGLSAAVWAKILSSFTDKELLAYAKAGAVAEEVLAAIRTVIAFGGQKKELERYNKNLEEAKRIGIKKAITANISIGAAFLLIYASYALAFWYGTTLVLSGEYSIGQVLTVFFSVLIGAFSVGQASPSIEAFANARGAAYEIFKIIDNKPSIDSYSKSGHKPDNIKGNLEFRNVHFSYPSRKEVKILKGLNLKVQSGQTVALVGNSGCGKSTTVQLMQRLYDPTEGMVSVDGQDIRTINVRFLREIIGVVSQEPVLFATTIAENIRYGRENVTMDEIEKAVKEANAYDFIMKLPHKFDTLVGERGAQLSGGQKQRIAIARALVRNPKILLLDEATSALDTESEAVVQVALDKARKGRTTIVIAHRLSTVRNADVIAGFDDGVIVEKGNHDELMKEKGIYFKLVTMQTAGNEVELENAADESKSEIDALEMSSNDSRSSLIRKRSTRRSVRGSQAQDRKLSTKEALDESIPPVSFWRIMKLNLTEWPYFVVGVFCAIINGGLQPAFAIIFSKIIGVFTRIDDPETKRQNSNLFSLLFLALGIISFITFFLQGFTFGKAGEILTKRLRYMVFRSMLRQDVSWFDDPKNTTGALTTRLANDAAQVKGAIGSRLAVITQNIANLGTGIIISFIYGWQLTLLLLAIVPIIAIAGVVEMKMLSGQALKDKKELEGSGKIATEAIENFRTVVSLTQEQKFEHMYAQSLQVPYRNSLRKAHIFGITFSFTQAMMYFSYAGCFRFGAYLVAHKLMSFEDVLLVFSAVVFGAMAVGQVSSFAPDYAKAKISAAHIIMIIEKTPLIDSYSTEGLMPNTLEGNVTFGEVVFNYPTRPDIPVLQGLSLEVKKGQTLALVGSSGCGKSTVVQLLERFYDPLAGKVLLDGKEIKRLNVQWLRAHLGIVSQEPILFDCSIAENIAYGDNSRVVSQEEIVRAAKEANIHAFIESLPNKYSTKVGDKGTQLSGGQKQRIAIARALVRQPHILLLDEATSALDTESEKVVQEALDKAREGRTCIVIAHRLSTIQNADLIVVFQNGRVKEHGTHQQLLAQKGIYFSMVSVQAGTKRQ
Description: as §1, with “Whole cell lysates were normalized for protein levels and probed for P-gp.” left out, “cart.” for “cart. Densitometry was performed using ImageJ and results are presented as relative to the untreated cells.”
Since normal healthy intestinal epithelium display baseline expression of P-gp, the inventors evaluated the colonic expression of P-gp in mice colonized with a S. Typhimurium strain that over-expresses SipA (AJK63) compared to mice colonized with an equivalent amount of an isogenic SipA mutant strain (EE633). […]

[3] = system: PERP; experiment: PERP protein expression in human colonic cancers in vitro; type: cell-based
Description: (§2) In a further embodiment, SipA increases the level of expression of PERP in cells, PERP is a tetraspan membrane protein originally identified as a transcriptional target of the p53 tumor suppressor (10). P53 regulates the cell cycle and, thus, functions as a tumor suppressor that is involved in preventing cancer. As such, p53 has been described as “the guardian of the genome”, referring to its role in conserving stability by preventing genome mutation. Fundamental to the tumor-suppressor role of p53 is the ability to engage in apoptosis. […] Studies investigating the interaction of SipA with the surface epithelial cells have been carried out (13, 14). The inventors used a split-ubiquitin based yeast-two hybrid analysis system (Dualsystems Biotech) with full length SipA as bait and a human cancer colon mRNA-based library as prey, to identify PERP, a p53 induced apoptotic effector, as a SipA interacting partner. […] While an understanding of the mechanism is not necessary, and without limiting the invention to any particular mechanism, and although the precise function of PERP in eliciting an apoptotic response remains unknown, initial reports indicate that PERP expression causes nuclear localization of p53 and increases the level of transcriptionally active p53 protein. […] Including increased protein stability, postranslational modifications, and enhanced nuclear accumulation. […]

[4] = system: P-gp; experiment: P-gp expression in MCF-7 breast adenocarcinoma cells, Western blot; type: cell-based, human; details: MCF-7 cells, 80 or 160 μg/ml purified SipA, 3 h, compared to buffer control
Method: (§3) FIG. 3A-B. SipA-induced, dose-dependent P-gp down-regulation is conserved in other cancer cell types. (FIG. 3A) MCF-7 breast adenocarcinoma cells were left untreated (−) or exposed to 80 μg/ml or 160 μg/ml of purified SipA for 3 h. Normalized whole cell lysates were then probed for P-gp and GAPDH. Densitometry was analyzed by ImageJ and presented as relative to the untreated cells. (FIG. 3B) UM-UC-3 human bladder carcinoma cells were left untreated or exposed to 80 μg/ml or 160 μg/ml of purified SipA for 3 h, and then probed and analyzed as in (FIG. 3A).
(§4) Cell culture. The human intestinal adenocarcinoma cell line HCT8 were maintained in accordance with (8). The human breast adenocarcinoma cell line MCF-7, the human bladder transitional cell carcinoma cell line UM-UC-3, and the CT26 murine colon carcinoma cell line, were purchased from ATCC and were all maintained in DMEM F-12 containing a 10% fetal bovine serum, 100 U/ml penicillin, and 10 μg/ml streptomycin at 37° C. in 90% relative humidity and 5% CO2.
(§5) Cell lysates and Western Blot analysis. Cell lysates were harvested from S. Typhimurium-infected HCT8 cells, as previously described (8). Proteins were normalized to 30 μg, separated by SDS/PAGE (4-12% gradient; Biorad, Hercules, Calif.), and transferred to nitrocellulose (Bio-Rad; 0.45μ membrane). […]

[5] = system: P-gp; experiment: P-gp expression in HCT8 cell monolayers, Western blot; type: cell-based, human
Method: FIG. 5A-B. SipA-AuNPs decrease the expression of P-gp at a SipA dose nearly 500 times lower than free SipA. (FIG. 5A) Schematic presentation of P-gp knockdown mechanism via SipA-AuNP. (FIG. 5B) HCT8 cell monolayers were left untreated (−), exposed to […] 160 μg/ml of purified SipA, AuNP alone or AuNP-SipA (0.72 μg/ml of SipA).
as §4
as §5, with “membrane). Immuno-blots were performed using the murine monoclonal P-gp C219 antibody (calbiochem) diluted at 1:100.” for “membrane).”

[6] = system: P-gp; experiment: P-gp expression in UM-UC-3 bladder carcinoma cells, Western blot; type: cell-based, human; details: UM-UC-3 cells, 80 or 160 μg/ml purified SipA, 3 h
Method: as §3, §4, §5

[7] = target: T1, PERP (Homo sapiens, UniProt Q96FX8); experiment: Split-ubiquitin yeast-two hybrid analysis with full length SipA as bait; type: binding; details: human cancer colon mRNA-based library as prey; epithelial surfaces
T1 construct: host or cells: yeast (split-ubiquitin two-hybrid system)
T1 sequence (Q96FX8 whole entry): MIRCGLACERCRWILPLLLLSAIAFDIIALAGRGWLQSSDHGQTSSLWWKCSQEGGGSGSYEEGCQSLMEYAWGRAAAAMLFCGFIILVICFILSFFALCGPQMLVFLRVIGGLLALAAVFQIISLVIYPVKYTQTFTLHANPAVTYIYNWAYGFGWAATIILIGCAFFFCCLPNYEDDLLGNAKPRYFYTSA
Description: as §2

## COc1cccc2c1C(=O)c1c(O)c3c(c(O)c1C2=O)C[C@@](O)(C(=O)CO)C[C@@H]3O[C@H]1C[C@H](N)[C@H](O)[C@H](C)O1 [doxorubicin]
[1]
  effect on tumor size: minimal effect on tumor size

## SipA: Salmonella Typhimurium type III secreted effector protein, SEQ ID NO:01; purified as SipA-HA fusion protein
[2]
  expression of P-gp in healthy murine intestinal epithelium: could modulate the expression of P-gp in healthy murine intestinal epithelium in vivo
[3]
  PERP protein expression: up-regulates the protein expression of PERP
[4]
  reduction of P-gp expression: 40%
[5]; HCT8 monolayers, 80 μg/ml or 160 μg/ml purified SipA-HA, 3 hours
  modulation of P-gp expression: dose dependent ability to modulate P-gp to the same degree as wild-type S. Typhimurium
[6]
  reduction of P-gp expression: 95%
[7]
  interaction with PERP: bind to PERP at epithelial surfaces

## lipopolysaccharide [reference compound]
[5]; HCT8, purified LPS from S. typhimurium 0.1 to 100 μg/ml, 3 h
  modulation of P-gp by lipopolysaccharide: not attributed to trace amounts of lipopolysaccharide

Source: patent publication US10835575B2, “Compositions and methods for treating disease using Salmonella T3SS effector protein (SipA)” (University of Massachusetts, priority 2013, dated 2020)
